Test results reported in PubChem BioAssay AID2060887 (Molecular Pharmacology Branch, DTP, NCI, 2025).
Values joined by “and” are separate entries in the source; they are usually repeats but may differ in a detail not shown here. Equal values may be shown once. Values belong to the molecule of their own block, whether it stands above or below them.

Test system: 782815-120-R-J1-PDC complex spheroid viability
Assay: Anticancer human tumor 782815-120-R-J1-PDC patient-derived colon adenocarcinoma cell line growth inhibition [RAS]
Settings: for viability, T/C: stronger effect = lower value
Method in brief: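 Agents were tested in combination matrices in half-log decrements from a top concentration at or near clinical Cmax (10 microM if undetermined). Targets were multi-cell spheroids of tumour lines plus HUVEC and MSC stromal cells.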

[1] = curve of first compound, second compound 0.000949 µM
[2] = curve of first compound, second compound 0.003 µM
[3] = curve of first compound, second compound 0.00949 µM
[4] = curve of first compound, second compound 0.03 µM
[5] = curve of first compound, second compound 0.0949 µM
[6] = curve of first compound, second compound 0.3 µM
[7] = second compound 0.000949 µM, first compound 0.0316 µM
[8] = second compound 0.000949 µM, first compound 0.1 µM
[9] = second compound 0.000949 µM, first compound 0.316 µM
[10] = second compound 0.000949 µM, first compound 1 µM
[11] = second compound 0.000949 µM, first compound 3.16 µM
[12] = second compound 0.000949 µM, first compound 10 µM
[13] = second compound 0.003 µM, first compound 0.0316 µM
[14] = second compound 0.003 µM, first compound 0.1 µM
[15] = second compound 0.003 µM, first compound 0.316 µM
[16] = second compound 0.003 µM, first compound 1 µM
[17] = second compound 0.003 µM, first compound 3.16 µM
[18] = second compound 0.003 µM, first compound 10 µM
[19] = second compound 0.00949 µM, first compound 0.0316 µM
[20] = second compound 0.00949 µM, first compound 0.1 µM
[21] = second compound 0.00949 µM, first compound 0.316 µM
[22] = second compound 0.00949 µM, first compound 1 µM
[23] = second compound 0.00949 µM, first compound 3.16 µM
[24] = second compound 0.00949 µM, first compound 10 µM
[25] = second compound 0.03 µM, first compound 0.0316 µM
[26] = second compound 0.03 µM, first compound 0.1 µM
[27] = second compound 0.03 µM, first compound 0.316 µM
[28] = second compound 0.03 µM, first compound 1 µM
[29] = second compound 0.03 µM, first compound 3.16 µM
[30] = second compound 0.03 µM, first compound 10 µM
[31] = second compound 0.0949 µM, first compound 0.0316 µM
[32] = second compound 0.0949 µM, first compound 0.1 µM
[33] = second compound 0.0949 µM, first compound 0.316 µM
[34] = second compound 0.0949 µM, first compound 1 µM
[35] = second compound 0.0949 µM, first compound 3.16 µM
[36] = second compound 0.0949 µM, first compound 10 µM
[37] = second compound 0.3 µM, first compound 0.0316 µM
[38] = second compound 0.3 µM, first compound 0.1 µM
[39] = second compound 0.3 µM, first compound 0.316 µM
[40] = second compound 0.3 µM, first compound 1 µM
[41] = second compound 0.3 µM, first compound 3.16 µM
[42] = second compound 0.3 µM, first compound 10 µM
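Note: spheroids exposed to compounds for 7 days before reading.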
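Throughout, for viability, T/C: 100% = DMSO vehicle control viability.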

Compound: NC1c2ccccc2OC12CCN(c1cnc3c(N4CCCc5ncccc54)n[nH]c3n1)CC2 (stereo not given) + CCn1c(-c2cc(N3CCN(C)CC3)cnc2C(C)OC)c2c3cc(ccc31)-c1csc(n1)CC(NC(=O)C1CC1C)C(=O)N1CCCC(N1)C(=O)OCC(C)(C)C2
IC50 [1]: > 10000 nM
IC50 [2]: 1660 nM
IC50 [3]: < 31.6 nM
IC50 [4]: < 31.6 nM
IC50 [5]: < 31.6 nM
IC50 [6]: < 31.6 nM
viability, T/C [7]: 74.5%
viability, T/C [8]: 74.1%
viability, T/C [9]: 73.3%
viability, T/C [10]: 67.9%
viability, T/C [11]: 78.7%
viability, T/C [12]: 67.8%
viability, T/C [13]: 50.3%
viability, T/C [14]: 53.9%
viability, T/C [15]: 56.5%
viability, T/C [16]: 47.6%
viability, T/C [17]: 49.1%
viability, T/C [18]: 44%
viability, T/C [19]: 26.1%
viability, T/C [20]: 33.1%
viability, T/C [21]: 23.6%
viability, T/C [22]: 23.7%
viability, T/C [23]: 24.4%
viability, T/C [24]: 21.2%
viability, T/C [25]: 15.9%
viability, T/C [26]: 17.1%
viability, T/C [27]: 18.2%
viability, T/C [28]: 16.2%
viability, T/C [29]: 18.7%
viability, T/C [30]: 14.6%
viability, T/C [31]: 16.4%
viability, T/C [32]: 17.4%
viability, T/C [33]: 18.8%
viability, T/C [34]: 20.6%
viability, T/C [35]: 18.8%
viability, T/C [36]: 13.6%
viability, T/C [37]: 16.4%
viability, T/C [38]: 15.7%
viability, T/C [39]: 17.6%
viability, T/C [40]: 16.4%
viability, T/C [41]: 19.1%
viability, T/C [42]: 11.8%

Compound: CC1(O)CCCC1n1c(=O)c(C(F)F)cc2cnc(NC3CCN(S(C)(=O)=O)CC3)nc21 (stereo not given) + CCn1c(-c2cc(N3CCN(C)CC3)cnc2C(C)OC)c2c3cc(ccc31)-c1csc(n1)CC(NC(=O)C1CC1C)C(=O)N1CCCC(N1)C(=O)OCC(C)(C)C2
IC50 [1]: 3340 nM
IC50 [2]: < 31.6 nM
IC50 [3]: < 31.6 nM
IC50 [4]: < 31.6 nM
IC50 [5]: < 31.6 nM
IC50 [6]: < 31.6 nM
viability, T/C [7]: 58.6%
viability, T/C [8]: 48.5%
viability, T/C [9]: 45%
viability, T/C [10]: 53.4%
viability, T/C [11]: 52.9%
viability, T/C [12]: 17%
viability, T/C [13]: 40.2%
viability, T/C [14]: 45.4%
viability, T/C [15]: 41.3%
viability, T/C [16]: 41.8%
viability, T/C [17]: 39.1%
viability, T/C [18]: 15.1%
viability, T/C [19]: 26.1%
viability, T/C [20]: 28.3%
viability, T/C [21]: 22.4%
viability, T/C [22]: 26.3%
viability, T/C [23]: 30%
viability, T/C [24]: 8.61%
viability, T/C [25]: 16.6%
viability, T/C [26]: 17.6%
viability, T/C [27]: 17.4%
viability, T/C [28]: 15.8%
viability, T/C [29]: 22.4%
viability, T/C [30]: 4.67%
viability, T/C [31]: 12.4%
viability, T/C [32]: 13.8%
viability, T/C [33]: 13.6%
viability, T/C [34]: 13.5%
viability, T/C [35]: 18.5%
viability, T/C [36]: 5.05%
viability, T/C [37]: 14.8%
viability, T/C [38]: 12.7%
viability, T/C [39]: 13.9%
viability, T/C [40]: 15%
viability, T/C [41]: 18.2%
viability, T/C [42]: 4.68%

Compound: CC(=O)OC12COC1CC(O)C1(C)C(=O)C(O)C3=C(C)C(OC(=O)C(O)C(NC(=O)OC(C)(C)C)c4ccccc4)CC(O)(C(OC(=O)c4ccccc4)C21)C3(C)C (stereo not given) + C#Cc1c(F)ccc2cc(O)cc(-c3ncc4c(N5CC6CCC(C5)N6)nc(OCC56CCCN5CC(F)C6)nc4c3F)c12
IC50 (curve of first compound, second compound 0.0316 µM): < 31.6 nM
IC50 (curve of first compound, second compound 0.1 µM): < 31.6 nM
IC50 (curve of first compound, second compound 0.316 µM): < 31.6 nM
IC50 (curve of first compound, second compound 1 µM): < 31.6 nM
IC50 (curve of first compound, second compound 3.16 µM): < 31.6 nM
IC50 (curve of first compound, second compound 10 µM): < 31.6 nM
viability, T/C (second compound 0.0316 µM, first compound 0.0316 µM): 34.4%
viability, T/C (second compound 0.0316 µM, first compound 0.1 µM): 32.9%
viability, T/C (second compound 0.0316 µM, first compound 0.316 µM): 30.1%
viability, T/C (second compound 0.0316 µM, first compound 1 µM): 24.4%
viability, T/C (second compound 0.0316 µM, first compound 3.16 µM): 30.8%
viability, T/C (second compound 0.0316 µM, first compound 10 µM): 34.9%
viability, T/C (second compound 0.1 µM, first compound 0.0316 µM): 39.7%
viability, T/C (second compound 0.1 µM, first compound 0.1 µM): 34.5%
viability, T/C (second compound 0.1 µM, first compound 0.316 µM): 29.2%
viability, T/C (second compound 0.1 µM, first compound 1 µM): 21.6%
viability, T/C (second compound 0.1 µM, first compound 3.16 µM): 32.2%
viability, T/C (second compound 0.1 µM, first compound 10 µM): 31%
viability, T/C (second compound 0.316 µM, first compound 0.0316 µM): 38.8%
viability, T/C (second compound 0.316 µM, first compound 0.1 µM): 33.4%
viability, T/C (second compound 0.316 µM, first compound 0.316 µM): 25.9%
viability, T/C (second compound 0.316 µM, first compound 1 µM): 28.6%
viability, T/C (second compound 0.316 µM, first compound 3.16 µM): 31.9%
viability, T/C (second compound 0.316 µM, first compound 10 µM): 29.5%
viability, T/C (second compound 1 µM, first compound 0.0316 µM): 36.5%
viability, T/C (second compound 1 µM, first compound 0.1 µM): 32.3%
viability, T/C (second compound 1 µM, first compound 0.316 µM): 30.5%
viability, T/C (second compound 1 µM, first compound 1 µM): 27.2%
viability, T/C (second compound 1 µM, first compound 3.16 µM): 33.7%
viability, T/C (second compound 1 µM, first compound 10 µM): 33.4%
viability, T/C (second compound 3.16 µM, first compound 0.0316 µM): 35.4%
viability, T/C (second compound 3.16 µM, first compound 0.1 µM): 34.4%
viability, T/C (second compound 3.16 µM, first compound 0.316 µM): 35.5%
viability, T/C (second compound 3.16 µM, first compound 1 µM): 27.5%
viability, T/C (second compound 3.16 µM, first compound 3.16 µM): 28.3%
viability, T/C (second compound 3.16 µM, first compound 10 µM): 34.2%
viability, T/C (second compound 10 µM, first compound 0.0316 µM): 35.7%
viability, T/C (second compound 10 µM, first compound 0.1 µM): 29.2%
viability, T/C (second compound 10 µM, first compound 0.316 µM): 26.8%
viability, T/C (second compound 10 µM, first compound 1 µM): 36%
viability, T/C (second compound 10 µM, first compound 3.16 µM): 29.9%
viability, T/C (second compound 10 µM, first compound 10 µM): 32.8%

Continued, in another order:

IC50 (curve of compound): 4.69 µM [middle of 4 runs]
Compound: CC1(O)CCCC1n1c(=O)c(C(F)F)cc2cnc(NC3CCN(S(C)(=O)=O)CC3)nc21 (stereo not given)
viability, T/C (compound 0.0316 µM): 70.6% [middle of 4 runs]
viability, T/C (compound 0.1 µM): 66.3% [middle of 4 runs]
viability, T/C (compound 0.316 µM): 64.3% [middle of 4 runs]
viability, T/C (compound 1 µM): 70% [middle of 4 runs]
viability, T/C (compound 3.16 µM): 63.5% [middle of 4 runs]
viability, T/C (compound 10 µM): 27% [middle of 4 runs]

IC50 (curve of compound): > 10000 nM
Compound: CC(Nc1ccc2c(c1)OCCn1cc(N3C(=O)OCC3C(F)F)nc1-2)C(N)=O (stereo not given)
viability, T/C (compound 0.0316 µM): 102% (2×) and 103% and 93.2%
viability, T/C (compound 0.1 µM): 97.5% [middle of 4 runs]
viability, T/C (compound 0.316 µM): 90.9% [middle of 4 runs]
viability, T/C (compound 1 µM): 87.2% [middle of 4 runs]
viability, T/C (compound 3.16 µM): 100% [middle of 4 runs]
viability, T/C (compound 10 µM): 93% [middle of 4 runs]
